Data from ChEMBL document CHEMBL3769336, “Discovery of a Chemical Tool Inhibitor Targeting the Bromodomains of TRIM24 and BRPF” (J Med Chem, 2016).
The source made the active and inactive calls. The rule behind the calls is not given here.

Tests used:
[1] = tested on: RCH-ACV; test: Cytotoxicity against human RCH-ACV cells at 5x10'-5 M to 8x10'-8 M after 72 hrs by CellTiter-Glo assay; type: functional, cell-based
[2] = biological target: T1, Bromodomain and PHD finger-containing protein 3 (Homo sapiens, UniProt Q9ULD4); test: Inhibition of BRPF3 (unknown origin) by Alpha Screen assay
T1 sequence (Q9ULD4 whole entry): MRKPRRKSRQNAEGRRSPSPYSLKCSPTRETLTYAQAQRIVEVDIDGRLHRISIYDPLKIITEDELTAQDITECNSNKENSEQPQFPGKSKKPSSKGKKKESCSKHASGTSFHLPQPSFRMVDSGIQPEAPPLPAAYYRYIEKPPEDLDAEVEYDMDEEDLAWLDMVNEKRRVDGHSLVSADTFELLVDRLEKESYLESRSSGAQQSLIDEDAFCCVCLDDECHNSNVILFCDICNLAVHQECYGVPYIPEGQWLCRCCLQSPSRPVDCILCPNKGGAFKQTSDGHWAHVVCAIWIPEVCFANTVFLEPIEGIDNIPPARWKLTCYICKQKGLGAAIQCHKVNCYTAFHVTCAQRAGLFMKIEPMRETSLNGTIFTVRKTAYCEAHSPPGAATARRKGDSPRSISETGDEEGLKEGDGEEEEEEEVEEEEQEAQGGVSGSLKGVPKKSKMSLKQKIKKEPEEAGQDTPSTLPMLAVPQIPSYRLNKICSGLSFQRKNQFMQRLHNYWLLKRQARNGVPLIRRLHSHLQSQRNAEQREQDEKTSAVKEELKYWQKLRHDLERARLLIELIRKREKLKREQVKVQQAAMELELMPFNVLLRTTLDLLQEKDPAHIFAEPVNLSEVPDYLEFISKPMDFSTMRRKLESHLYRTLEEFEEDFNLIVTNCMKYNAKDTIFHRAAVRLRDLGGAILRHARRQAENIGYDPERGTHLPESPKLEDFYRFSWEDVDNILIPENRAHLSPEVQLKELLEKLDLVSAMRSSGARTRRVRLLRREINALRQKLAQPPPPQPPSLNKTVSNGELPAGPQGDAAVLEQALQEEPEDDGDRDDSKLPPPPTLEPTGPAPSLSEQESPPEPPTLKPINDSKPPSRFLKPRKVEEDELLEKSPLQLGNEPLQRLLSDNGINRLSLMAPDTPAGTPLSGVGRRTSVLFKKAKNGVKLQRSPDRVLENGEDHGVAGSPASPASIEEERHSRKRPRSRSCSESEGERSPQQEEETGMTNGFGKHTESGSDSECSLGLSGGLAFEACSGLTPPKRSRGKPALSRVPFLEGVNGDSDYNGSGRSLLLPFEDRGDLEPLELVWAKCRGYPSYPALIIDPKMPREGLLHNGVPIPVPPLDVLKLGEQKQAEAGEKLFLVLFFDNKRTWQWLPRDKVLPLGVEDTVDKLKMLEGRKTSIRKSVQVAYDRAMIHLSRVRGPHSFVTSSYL

IC50 [2]: 7 µM
Structure (SMILES): COc1ccc(Oc2cc3c(cc2NS(=O)(=O)c2ccc(OC)c(OC)c2)n(C)c(=O)n3C)cc1
Activity [1]: inactive
